Data from patent US20090258030A1, “Materials and Methods for Improving Livestock Productivity” (priority 2006, published 2009).
Counter-ions that a name gives are not always drawn. Marks after values point to notes of the source that are not given here.

Experiments:
[1] = Effect of cysteamine hydrochloride on productivity of pregnant pig sows (Example 1); format: in vivo, swine (D×L×M hybrid swine)
Description: A total of 14 heads of pregnant pig sow (which were the offspring of Duroc×Landrace×Meishan swine, also referred to herein as D×L×M hybrid swine) (84 days of pregnant) were divided into 2 groups: Control group (6) and Cysteamine group (8). The Control group was fed with basal diet. […]

[2] = Effect of cysteamine hydrochloride on weaning piglets: growth, FCR, diarrhea (Example 2); format: in vivo, swine (D×L×M weanling piglets)
Description: Total of 100 heads of unhealthy D×L×M weanling piglets (approx. 6.78 kg) were divided into 2 groups—Control group (50 heads) & Cysteamine group (50 heads). The Control group was fed with basal diet. […]

[3] = Carcass composition/appearance of fattening pigs (Example 3); format: in vivo, swine; conditions: 150 g cysteamine hydrochloride per ton of feed
Experimental: 72 piglets were divided evenly into control group and Cysteamine group. The control group was treated with basal diet while the Cysteamine group was treated with basal diet added with 150 g cysteamine hydrochloride per ton of feed. Upon reaching the market weight of 85-90 kg, five animals from each treatment were slaughtered after fasting for one day. During slaughter, the animals were stunned with a stunning gun, bled, dehaired and eviscerated. The carcass was split […] and then chilled for 24 hours prior to fabrication. The slaughter and the chilled carcass weights were recorded. The chilled carcass weight expressed as percentage of the slaughter weight represents the dressed yield. The wholesale and retail cuts of each animals were weighed and recorded. The values were expressed as the percentage of the live weight and of the chilled carcass weight.
The area of the longissimus dorsi (LD) muscle was measured on the 12th rib of the right part of the carcasses. This was done by tracing the outline of the whole LD muscle on acetate paper and the area was measured with the use of a grading method.
There were no significant interaction effects.

[4] = Daily weight gain and feed conversion rate of beef cattle (Example 5); format: in vivo, beef cattle (Ximenta'er hybridizing beef cattle)
Experimental: In the following example, the test animals were beef cattle (Ximenta'er hybridizing beef cattle). The experiment was performed at the Hebei Hengshui Geling Beef Cattle Raising Farm dur the period from Oct. 10 to Dec. 21, 2002. In total, 64 heads of around 350 kg Ximenta'er hybridizing beef cattle were selected and separated into 4 groups randomly according to the principle of equalizing age, weight, grace, fur/hair condition, etc. Each group had 16 heads of beef cattle. The Control Group, Test Group I, II & III were fed a composition comprising 0, 1.5, 3, 6 g/head/day of cysteamine HCl, respectively. As noted in Tables 8, 9, and 10 below, adding a cysteamine compound to the basal diet of beef cattle can increase daily weight gain.

[5] = Effect of cysteamine compound on small-fat-tail sheep (Example 6); format: in vivo
Description: In the following example, the test animals were sheep (small-fat-tail sheep). In total, 40 heads of small-fat-tail sheep with the average weight of 26.5 kg were randomly divided into Control group (20) and Cysteamine group (20). The control group was fed with basal diet only, while the Cysteamine group was fed a diet that included 900 g cysteamine HCl per tonnage of diet. The standard basal diet of the farm was employed for this trial.

[6] = 150 g cysteamine hydrochloride per ton feed, after 49 days, vs control
[7] = late phase pregnant sow, dosage 500 g/T, from 84 days of pregnant to weaning
[8] = 90 g of cysteamine hydrochloride per ton of feed, after 30 days, vs control
[9] = D × L × M weanling piglets, 300 ppm, 30 days
[10] = D × L × M weanling piglets, 300 ppm, 30 days, 50 head
[11] = slaughter at market weight 85-90 kg
[12] = 900 g cysteamine HCl per tonnage of diet, after 35 days
[13] = 900 g/tonnage, 35 days, vs control
[14] = feed consumed, 900 g/tonnage, 35 days, 20 head

Structure (SMILES): NCCS [Cysteamine Hydrochloride, cysteamine hydrochloride]
- increase in litter weight [1, 6]: 13.28%
- increase in piglet born weight [1, 6]: 12.43%
- increase in weaning weight [1, 6]: 8.00%
- Body weight of weaned piglet (kg/head) ([1]; dosage 500 g/T, piglets weaning age 19 days): 6.21 kg/head
- Birth weight per litter: Improvement ([1]; dosage 500 g/T, vs control): 2.50 kg
- Birth weight per litter: Improvement (%) ([1]; dosage 500 g/T, vs control): 13.28%
- Birth weight per piglet: Improvement ([1]; dosage 500 g/T, vs control): 0.23 kg/head
- Birth weight per piglet: Improvement (%) ([1]; dosage 500 g/T, vs control): 12.43%
- Body weight of weaned piglet: Improvement ([1]; dosage 500 g/T, vs control): 0.46 kg/head
- Body weight of weaned piglet: Improvement (%) ([1]; dosage 500 g/T, vs control): 8.00%
- Live piglet born rate: Improvement ([1]; dosage 500 g/T, vs control): 0.00%
- Live piglet born rate: Improvement (%) ([1]; dosage 500 g/T, vs control): 0.00%
- Birth weight per litter [1, 7]: 21.32 kg
- Birth weight per piglet (kg/head) [1, 7]: 2.08 kg/head
- Live piglet born per litter (head) [1, 7]: 10.29 head
- Live piglet born rate (%) [1, 7]: 100.00%
- Piglet born per litter (head) [1, 7]: 10.29 head
- Total live piglet born (head) [1, 7]: 82 head
- Total piglet born (head) [1, 7]: 82 head
- decrease in feed conversion rate (FCR) [2, 8]: 5.56%
- improvement in diarrhea condition [2, 8]: 43.24%
- increase in average daily weight gain (ADG) [2, 8]: 12.83%
- ADG: Improvement ([2]; 300 ppm, 30 days, vs control): +48 g/head
- ADG: Improvement (%) ([2]; 300 ppm, 30 days, vs control): 12.83%
- Daily feed consumption: Improvement ([2]; 300 ppm, 30 days, vs control): +44.2 g/head
- Diarrhea: Improvement (%) ([2]; 300 ppm, 30 days, vs control): −43.24%
- FCR: Improvement ([2]; 300 ppm, 30 days, vs control): −0.1
- FCR: Improvement (%) ([2]; 300 ppm, 30 days, vs control): −5.56%
- Final Wt.: Improvement ([2]; 300 ppm, 30 days, vs control): +1.5 kg/head
- Total feed consumption: Improvement ([2]; 300 ppm, 30 days, vs control): +66.3 kg
- Total final weight: Improvement ([2]; 300 ppm, 30 days, vs control): +75 kg
- Total weight gain: Improvement ([2]; 300 ppm, 30 days, vs control): +72.5 kg
- Weight gain: Improvement ([2]; 300 ppm, 30 days, vs control): +1.45 kg/head
- ADG (g/head) [2, 9]: 422 g/head
- Daily feed consumption (g/head) [2, 9]: 717.4 g/head
- FCR [2, 9]: 1.70
- Final Wt. (kg/head) [2, 9]: 19.46 kg/head
- Weight gain (kg/head) [2, 9]: 12.66 kg/head
- Total feed consumption [2, 10]: 1076.1 kg
- Total final weight [2, 10]: 973 kg
- Total weight gain [2, 10]: 633 kg
- Diarrhea (head) ([2]; D × L × M weanling piglets, 300 ppm, 30 days, of 50 head): 21 head
- backfat vs pigs fed diet without cysteamine hydrochloride [3]: significantly thinner
- dressing percentage, loin eye area, and lean:fat ratio vs pigs fed without cysteamine hydrochloride [3]: no significant differences
- loin cut and lean trimmings as a percent of the live-weight vs pigs fed without cysteamine hydrochloride [3]: significantly higher
- Dressing % [3, 11]: 69.012%
- Lean:Fat Ratio [3, 11]: 0.105
- Loin Eye Area (sq.cm) [3, 11]: 4.850 sq.cm
- Backfat Thickness (cm) ([3]; slaughter at market weight 85-90 kg, P < 0.05 vs non-cysteamine HCl): 1.91^a cm
- daily weight gain ([4]; Test Group III: 6 g/head/day, p<0.05 vs Control, Test Group I & II): 1.217 kg
- Feed Conversion Rate (FCR): Concentrated feed ([4]; Test I: 1.5 g/head/day): 3.54
- Feed Conversion Rate (FCR): Corn Silage ([4]; Test I: 1.5 g/head/day): 14.14
- Feed Conversion Rate (FCR): Raw Grass ([4]; Test I: 1.5 g/head/day): 1.21
- Final Wt. ([4]; Test I: 1.5 g/head/day): 423.8 kg
- Feed Conversion Rate (FCR): Concentrated feed ([4]; Test II: 3 g/head/day): 3.70^a
- Feed Conversion Rate (FCR): Corn Silage ([4]; Test II: 3 g/head/day): 14.42^a
- Feed Conversion Rate (FCR): Raw Grass ([4]; Test II: 3 g/head/day): 1.27^a
- Final Wt. ([4]; Test II: 3 g/head/day): 420.5 kg
- Feed Conversion Rate (FCR): Concentrated feed ([4]; Test III: 6 g/head/day): 3.09^b
- Feed Conversion Rate (FCR): Corn Silage ([4]; Test III: 6 g/head/day): 12.87^b
- Feed Conversion Rate (FCR): Raw Grass ([4]; Test III: 6 g/head/day): 1.06^a
- Final Wt. ([4]; Test III: 6 g/head/day): 432.7 kg
- amount of silage necessary in raising the sheep [5, 12]: reduction
- weight (ADG) vs control [5, 12]: statistically significant increase
- Daily weight gain (g/head/day) ([5]; 900 g/tonnage, 35 days): 95.71 g/head/day
- Final weight (kg/head) ([5]; 900 g/tonnage, 35 days): 28.92 kg/head
- Weight gain (kg/head) ([5]; 900 g/tonnage, 35 days): 3.350 kg/head
- Total feed consumption ([5]; 900 g/tonnage, 35 days, 20 head): 1019.38 kg
- Daily weight gain: Improvement (%) [5, 13]: 30.9%
- Silage: Improvement (%) [5, 13]: −16.22%
- Weight gain: Improvement (%) [5, 13]: 30.9%
- Concentrate [5, 14]: 245 kg
- Hay [5, 14]: 350.00 kg
- Silage [5, 14]: 424.38 kg
